Calls of active or inactive are those of the source. The rule behind the calls is not given here.
How the values were obtained:
HeLa [1] = test: Transfection efficiency of compound in delivering a plasmid bearing the sequence of luciferase gene under the dependence of human cytomegalo virus promoter into HeLa cells was evaluated; Inactive; assay type: functional, cell-based
HeLa [2] = test: Transfection efficiency of compound in delivering a plasmid bearing the sequence of luciferase gene as ratio of nM of vector/ug of DNA in HeLa cells; assay type: functional, Homo sapiens
HeLa [3] = test: Transfection efficiency of compound in delivering a plasmid bearing the sequence of luciferase gene under the dependence of human cytomegalo virus promoter into HeLa cells was evaluated; Active; assay type: functional, cell-based
NIH3T3 = test: Transfection efficiency of compound in delivering a plasmid bearing the sequence of luciferase gene as ratio of nM of vector/ug of DNA in NIH3T3 cells; assay type: functional, Mus musculus

| Compound | Activity (HeLa [1]) | Activity (HeLa [2]) | Activity (HeLa [3]) | Activity (NIH3T3) |
| --- | --- | --- | --- | --- |
| CCCCCCCCCCCCCCCCCCN(CCCCCCCCCCCCCCCCCC)C(=O)c1ccccc1C(=O)OC[C@H]1O[C@H](OC)[C@H](OC(=O)CN)[C@@H](OC(=O)CN)[C@H]1OC(=O)CN | inactive |  |  |  |
| CCCCCCCCCCCCCCCCCCN(CCCCCCCCCCCCCCCCCC)C(=O)CCC(=O)OC[C@H]1O[C@H](OC)[C@H](OCCN)[C@@H](OCCN)[C@H]1OCCN |  | 8 (nM of vector) (ug of DNA)-1 | Active | 12 (nM of vector) (ug of DNA)-1 |
| CCCCCCCCCCCCCCCCCCN(CCCCCCCCCCCCCCCCCC)C(=O)CCC(=O)OC[C@H]1O[C@H](OC)[C@H](OC(=O)CN)[C@@H](OC(=O)CN)[C@H]1OC(=O)CN | inactive |  |  |  |
| CCCCCCCCCCCCCCCCCCN(CCCCCCCCCCCCCCCCCC)C(=O)c1ccccc1C(=O)OC[C@H]1O[C@H](OC)[C@H](OCCN)[C@@H](OCCN)[C@H]1OCCN |  | 8 (nM of vector) (ug of DNA)-1 | Active | 12 (nM of vector) (ug of DNA)-1 |
